Assay results taken from patent US9879023B2, “Therapeutic compounds” (Gilead Sciences, Inc., priority 2011, dated 2018).

Each molecule was assayed on HIV-IIIb (MT-4 cells) (assay: Test A: Antiviral Assays in MT4 Cells). Settings: Human immunodeficiency virus 1, IIIB, MT4, 120 h.
Format: cell-based
Method: Test A: Antiviral Assays in MT4 Cells
For the antiviral assay utilizing MT-4 cells, 0.4 μL of […] test concentration of 3-fold serially diluted compound in DMSO was added to 40 μL of cell growth medium (RPMI 1640, 10% FBS, 1% penicilline/Streptomycine, 1% L-Glutamine, 1% HEPES) in each well of 384-well assay plates (10 concentrations) in quadruplicate.
1 mL aliquots of 2×10e6 MT-4 cells are pre-infected for 1 and 3 hrs respectively, @37° C. with 25 uL (MT4) or of either cell growth medium (mock-infected) or a fresh 1:250 dilution of an HIV-IIIb concentrated ABI stock (0.004 m.o.i. for MT4 cells). Infected and uninfected cells are diluted in cell growth medium and 35 uL of 2000 (for MT4) cells is added to each well of the assay plates.
Assay plates were then incubated in a 37° C. incubator. After 5 days of incubation, 25 μl of 2× concentrated CellTiter-Glo™ Reagent (catalog # G7573, Promega Biosciences, Inc., Madison, Wis.) was added to each well of the assay plate. Cell lysis was carried out by incubating at room temperature for 2-3 min and then chemiluminescence was read using the Envision reader (PerkinElmer). […]
Cc1cc2nc(N(C)C)sc2c(-c2ccc3c4c(ccnc24)CCO3)c1[C@H](OC(C)(C)C)C(=O)O (atropisomer, axis not shown) [Compound 43, (S)-2-tert-butoxy-2-((R)-7-(2,3-dihydropyrano[4,3,2-de]quinolin-7-yl)-2-(dimethylamino)-5-methylbenzo[d]thiazol-6-yl)acetic acid] was tested, and the EC50 was 5090 nM.

Same assay, conditions: Human immunodeficiency virus 1, IIIB, MT4, 120 h, MT-4 cells infected with HIV-IIIb (0.004 m.o.i.), 5 days incubation, CellTiter-Glo readout; read-out: EC50
Cc1nc2cc(C)c([C@H](OC(C)(C)C)C(=O)O)c(-c3ccc(Cl)cc3)c2s1 [Compound 7, (S)-2-tert-butoxy-2-(7-(4-chlorophenyl)-2,5-dimethylbenzo[d]thiazol-6-yl)acetic acid] gave an EC50 of 257 nM. Work on Cc1cc2nc(C3CC3)sc2c(-c2ccc(Cl)cc2)c1[C@H](OC(C)(C)C)C(=O)O [Compound 10] yielded an EC50 of 121 nM. Cc1cc2nc(C(=O)O)sc2c(-c2ccc3c4c(ccnc24)CCO3)c1[C@H](OC(C)(C)C)C(=O)O (atropisomer, axis not shown) [Compound 41] gave an EC50 of 923 nM. COc1ccc(CNC(=O)c2nc3cc(C)c([C@H](OC(C)(C)C)C(=O)O)c(-c4ccc5c6c(ccnc46)CCO5)c3s2)cc1 (atropisomer, axis not shown) [Compound 99, (S)-2-tert-butoxy-2-((S)-7-(2,3-dihydropyrano[4,3,2-de]quinolin-7-yl)-2-(4-methoxybenzylcarbamoyl)-5-methylbenzo[d]thiazol-6-yl)acetic acid] gave an EC50 of 560 nM. Work on Cc1cc2nc(C(C)C)sc2c(-c2ccc3c4c(ccnc24)CCO3)c1[C@H](OC(C)(C)C)C(=O)O (atropisomer, axis not shown) [Compound 88, (S)-2-tert-butoxy-2-((S)-7-(2,3-dihydropyrano[4,3,2-de]quinolin-7-yl)-2-isopropyl-5-methylbenzo[d]thiazol-6-yl)acetic acid] yielded an EC50 of 13.3 nM. With Cc1cc2nc(N(C)CC(=O)N(C)C)sc2c(-c2ccc3c4c(ccnc24)CCO3)c1[C@H](OC(C)(C)C)C(=O)O (atropisomer, axis not shown) [Compound 64, (S)-2-tert-butoxy-2-((R)-7-(2,3-dihydropyrano[4,3,2-de]quinolin-7-yl)-2-((2-(dimethylamino)-2-oxoethyl)(methyl)amino)-5-methylbenzo[d]thiazol-6-yl)acetic acid] the EC50 was 53000 nM. Molecule Cc1cc2nc(N(C)C)sc2c(-c2ccc3c4c(ccnc24)CCO3)c1[C@H](OC(C)(C)C)C(=O)O [Compound 42, (S)-2-tert-butoxy-2-((S)-7-(2,3-dihydropyrano[4,3,2-de]quinolin-7-yl)-2-(dimethylamino)-5-methylbenzo[d]thiazol-6-yl)acetic acid] has an EC50 of 10.3 nM. Work on Cc1cc2c(sc(=O)n2Cc2cccc(C(F)(F)F)c2)c(-c2ccc3c4c(ccnc24)CCO3)c1[C@H](OC(C)(C)C)C(=O)O (atropisomer, axis not shown) [Compound 73, (S)-2-tert-butoxy-2-((S)-7-(2,3-dihydropyrano[4,3,2-de]quinolin-7-yl)-5-methyl-2-oxo-3-(3-(trifluoromethyl)benzyl)-2,3-dihydrobenzo[d]thiazol-6-yl)acetic acid] yielded an EC50 of 52.2 nM. In the case of Cc1cc2nc(C(N)=O)sc2c(-c2ccc3c4c(ccnc24)CCO3)c1[C@H](OC(C)(C)C)C(=O)O [Compound 40, (S)-2-tert-butoxy-2-((S)-2-carbamoyl-7-(2,3-dihydropyrano[4,3,2-de]quinolin-7-yl)-5-methylbenzo[d]thiazol-6-yl)acetic acid], the EC50 is reported as 722 nM. For Cc1cc2nc(C3CC3)sc2c(-c2ccc3c4c(cccc24)CCO3)c1[C@H](OC(C)(C)C)C(=O)O [Compound 85, (S)-2-tert-butoxy-2-((S)-2-cyclopropyl-7-(2,3-dihydrobenzo[de]chromen-7-yl)-5-methylbenzo[d]thiazol-6-yl)acetic acid], the EC50 was 66.4 nM. COc1nc2cc(C)c([C@H](OC(C)(C)C)C(=O)O)c(-c3ccc4c5c(ccnc35)CCO4)c2s1 (atropisomer, axis not shown) [Compound 66, (S)-2-tert-butoxy-2-((S)-7-(2,3-dihydropyrano[4,3,2-de]quinolin-7-yl)-2-methoxy-5-methylbenzo[d]thiazol-6-yl)acetic acid] was tested, and the EC50 was 22.5 nM. Work on Cc1cc2c(sc(=O)n2Cc2ccccc2C(F)(F)F)c(-c2ccc3c4c(ccnc24)CCO3)c1[C@H](OC(C)(C)C)C(=O)O (atropisomer, axis not shown) [Compound 71, (S)-2-tert-butoxy-2-((S)-7-(2,3-dihydropyrano[4,3,2-de]quinolin-7-yl)-5-methyl-2-oxo-3-(2-(trifluoromethyl)benzyl)-2,3-dihydrobenzo[d]thiazol-6-yl)acetic acid] yielded an EC50 of 984 nM. Molecule Cc1cc2nc(CC(C)C)sc2c(-c2ccccc2)c1[C@H](OC(C)(C)C)C(=O)O [Compound 8K, (S)-2-tert-butoxy-2-(2-isobutyl-5-methyl-7-phenylbenzo[d]thiazol-6-yl)acetic acid] has an EC50 of 641 nM. Cc1cc2nc(C(=O)C3=CCC3)sc2c(-c2ccc(Cl)cc2)c1[C@H](OC(C)(C)C)C(=O)O [Compound 14b] gave an EC50 of 480 nM. Cc1cc2nc(C3CCC3)sc2c(-c2ccc3c4c(ccnc24)CCO3)c1[C@H](OC(C)(C)C)C(=O)O (atropisomer, axis not shown) [Compound 82, (S)-2-tert-butoxy-2-((S)-2-cyclobutyl-7-(2,3-dihydropyrano[4,3,2-de]quinolin-7-yl)-5-methylbenzo[d]thiazol-6-yl)acetic acid] was tested, and the EC50 was 40.2 nM.

Same assay, conditions: MT-4 cells infected with HIV-IIIb (0.004 m.o.i.), 5 days incubation, CellTiter-Glo readout; read-out: EC50
For Cc1cc2nc(N(C)CCN(C)C)sc2c(-c2ccc3c4c(ccnc24)CCO3)c1[C@H](OC(C)(C)C)C(=O)O (atropisomer, axis not shown) [Compound 62, (S)-2-tert-butoxy-2-((R)-7-(2,3-dihydropyrano[4,3,2-de]quinolin-7-yl)-2-((2-(dimethylamino)ethyl)(methyl)amino)-5-methylbenzo[d]thiazol-6-yl)acetic acid], the EC50 was 4880 nM. For Cc1cc2nc(N(C)CCN(C)C)sc2c(-c2ccc3c4c(ccnc24)CCO3)c1[C@H](OC(C)(C)C)C(=O)O (atropisomer, axis not shown) [Compound 61, (S)-2-tert-butoxy-2-((S)-7-(2,3-dihydropyrano[4,3,2-de]quinolin-7-yl)-2-((2-(dimethylamino)ethyl)(methyl)amino)-5-methylbenzo[d]thiazol-6-yl)acetic acid], the EC50 was 987 nM. Molecule Cc1cc2nc(N(C)CC3OCCO3)sc2c(-c2ccc3c4c(ccnc24)CCO3)c1[C@H](OC(C)(C)C)C(=O)O (atropisomer, axis not shown) [Compound 60, (S)-2-((R)-2-(((1,3-dioxolan-2-yl)methyl)(methyl)amino)-7-(2,3-dihydropyrano[4,3,2-de]quinolin-7-yl)-5-methylbenzo[d]thiazol-6-yl)-2-tert-butoxyacetic acid] has an EC50 of 34500 nM. For Cc1cc2nc(N(C)CC3OCCO3)sc2c(-c2ccc3c4c(ccnc24)CCO3)c1[C@H](OC(C)(C)C)C(=O)O (atropisomer, axis not shown) [Compound 59, (S)-2-((S)-2-(((1,3-dioxolan-2-yl)methyl)(methyl)amino)-7-(2,3-dihydropyrano[4,3,2-de]quinolin-7-yl)-5-methylbenzo[d]thiazol-6-yl)-2-tert-butoxyacetic acid], the EC50 was 149 nM. Cc1cc2nc(N3CCC3)sc2c(-c2ccc3c4c(ccnc24)CCO3)c1[C@H](OC(C)(C)C)C(=O)O [Compound 35, (S)-2-((S)-2-(azetidin-1-yl)-7-(2,3-dihydropyrano[4,3,2-de]quinolin-7-yl)-5-methylbenzo[d]thiazol-6-yl)-2-tert-butoxyacetic acid] was tested, and the EC50 was 12.7 nM. Cc1cc2nc(C3CC3)sc2c(-c2ccc3c(c2Cl)NCCO3)c1[C@H](OC(C)(C)C)C(=O)O (atropisomer, axis not shown) [Compound 87, (S)-2-tert-butoxy-2-((R)-7-(5-chloro-3,4-dihydro-2H-benzo[b] [1,4]oxazin-6-yl)-2-cyclopropyl-5-methylbenzo[d]thiazol-6-yl)acetic acid] showed an EC50 of 1570 nM. Cc1cc2nc(N(C)C(C)C)sc2c(-c2ccc3c4c(ccnc24)CCO3)c1[C@H](OC(C)(C)C)C(=O)O (atropisomer, axis not shown) [Compound 47, (S)-2-tert-butoxy-2-((R)-7-(2,3-dihydropyrano[4,3,2-de]quinolin-7-yl)-2-(isopropyl(methyl)amino)-5-methylbenzo[d]thiazol-6-yl)acetic acid] was tested, and the EC50 was 26500 nM. Molecule Cc1cc2nc(N(C)CC(C)C)sc2c(-c2ccc3c4c(ccnc24)CCO3)c1[C@H](OC(C)(C)C)C(=O)O (atropisomer, axis not shown) [Compound 49, (S)-2-tert-butoxy-2-((R)-7-(2,3-dihydropyrano[4,3,2-de]quinolin-7-yl)-2-(isobutyl(methyl)amino)-5-methylbenzo[d]thiazol-6-yl)acetic acid] has an EC50 of 13300 nM. Cc1cc2nc(C3=CCCC3)sc2c(-c2ccc3c4c(ccnc24)CCO3)c1[C@H](OC(C)(C)C)C(=O)O (atropisomer, axis not shown) [Compound 78, (S)-2-tert-butoxy-2-((S)-2-cyclopentenyl-7-(2,3-dihydropyrano[4,3,2-de]quinolin-7-yl)-5-methylbenzo[d]thiazol-6-yl)acetic acid] was tested, and the EC50 was 726 nM.
